Literature values, collected in patent US20020009704A1, “Oocyte vitrification technique” (priority 2000, published 2002).

Tested on: bovine oocytes

OCCO [ethylene glycol]
toxicity for bovine oocytes: relatively low toxicity
